Results reported in patent US20240197788A1, “PHARMACEUTICAL COMPOSITION FOR PREVENTING OR TREATING PARKINSON'S DISEASE, AND PREPARATION METHOD THEREOF” (INDUSTRY FOUNDATION OF CHONNAM NATIONAL UNIVERSITY, priority 2021, published 2024).

What was measured:
[1] = Rotenone toxicity, trypan blue cell counting of surviving cells; format: cell-based; conditions: human, SH-SY5Y neuroblastoma cells, 0.5 μM rotenone
Procedure: The human neuroblastoma cell line, that is, SH-SY5Y (RRID: CVCL 0019; ATCC® CRL-2266) was cultured in DMEM supplemented with 10% FBS and 1% penicillin-streptomycin (Welgene Inc., Gyeonsangbuk-do, Republic of Korea) at 37° C. under a wet condition of 5% CO2/95% air. The mixed culture (passages 15-22) was washed with phosphate-buffered saline (PBS), the cells were isolated with 0.25% trypsin-EDTA solution and then reseeded in DMEM containing 1% FBS at 5×10^4 cells/Ml. Then, after overnight incubation, it was used for experiments. ROT (Sigma R8875) stock was prepared at a concentration of 10 mM in […] (DMSO; Sigma D2650) solvent, stored at −80° C., and used within 6 months. Before starting each experiment, a serum-free DMEM culture was diluted to prepare a ROT stock working solution.
SH-SY5Y cells were divided into a treated group treated with ROT (0.5 μM) for 24 hours and an untreated group, followed by culturing in DMSO solvent. […] The number of surviving cells was counted using LUNA-II™ (Logos Biosystems, Gyeonggi-do, Republic of Korea) automatic cell counter. Cell count analysis was performed three times and expressed as a percentage (%) of the control.

[2] = tested on: Triton X-100 insoluble alpha-synuclein (p-S129 α-syn, total α-syn); experiment: Western blot of Triton X-100 insoluble alpha-synuclein in SH-SY5Y cells; format: cell-based, human; conditions: ROT-treated group, insoluble fraction
Procedure: (§1) SH-SY5Y cells were divided into a treated group treated with ROT (0.5 μM) for 24 hours and an untreated group, followed by culturing in DMSO solvent. Thereafter, the culture was removed, and the cells were divided into hBMSC-CM-treated group, NI-hBMSC-CM-treated group, hADSC-CM-treated group and NI-hADSC-CM-treated group in 50% diluted DMEM, followed by culturing each group in ROT (0.5 μM)-treated and untreated groups, respectively, for 24 hours. FBS was maintained at a concentration of 1% throughout the study. Phase contrast images were taken using an Olympus microscope (CKX41) equipped with a camera. Damaged and depleted suspended cells in the culture and adherent cells isolated by trypsinization were combined and a trypan blue cell counting method was applied. The number of surviving cells was counted using LUNA-II™ (Logos Biosystems, Gyeonggi-do, Republic of Korea) automatic cell counter. Cell count analysis was performed three times and expressed as a percentage (%) of the control.
After 48 hours of experiment, SH-SY5Y cells were lysed in cell lysis buffer containing a protease inhibitor and a phosphatase inhibitor together with the above-described 1% Triton X-100 for 30 minutes. […] The protein concentration was measured using a BCA protein assay kit. […] The same protein load was assessed by the expression level of GAPDH used as an internal control. […]

[3] = tested on: tyrosine hydroxylase (TH); experiment: Western blot of tyrosine hydroxylase protein expression in SH-SY5Y cells; format: cell-based, human; conditions: 0.5 μM rotenone alone; FIGS. 3 and 4
Procedure: as §1, with “Damaged and depleted suspended cells in the culture and adherent cells isolated by trypsinization were combined and a trypan blue cell counting method was applied.” left out
(§2) After incubation for a total of 48 hours, the cells were scraped using a cell scraper, washed twice with PBS, and then exposed to a cell lysis buffer supplemented with protease inhibitor and phosphatase inhibitor (100 mM Tris-HCl (pH 7.6), 100 mM NaCl, 1% Nonidet P-40, 1% sodium deoxycholate, 0.1% sodium dodecyl sulfate (SDS) and 1% Triton X-100), followed by incubation on ice for 30 minutes. […] The protein concentration was measured using a BCA protein assay kit (Thermo Fisher Scientific, Waltham, MA, USA #23225) according to the manufacturer's instructions. […]

[4] = tested on: NF—H, β3-tubulin, NeuN, SYP; experiment: Western blot of neuron-specific proteins in SH-SY5Y cells; format: cell-based, human; conditions: rotenone treatment (0.5 μM, 48 hours); FIGS. 13A-13D, 14A-14D
Procedure: (§3) After incubation for a total of 48 hours, the cells were scraped using a cell scraper, washed twice with PBS, and then exposed to a cell lysis buffer supplemented with protease inhibitor and phosphatase inhibitor (100 mM Tris-HCl (pH 7.6), 100 mM NaCl, 1% Nonidet P-40, 1% sodium deoxycholate, 0.1% sodium dodecyl sulfate (SDS) and 1% Triton X-100), followed by incubation on ice for 30 minutes. The eluate was centrifuged at 13,200 rpm and at 4° C. for 15 minutes, and the supernatant was collected. The protein concentration was measured using a BCA protein assay kit (Thermo Fisher Scientific, Waltham, MA, USA #23225) according to the manufacturer's instructions.
Protein (15 μg) was separated on an 8-14% SDS-polyacrylamide gel and transferred to a nitrocellulose membrane (Millipore, Berlington, MA, USA, HATF00010), and the membrane was washed with PBS containing 0.5% (v/v) Tween 20 (PBS-T), followed by blocking with 5% (v/v) non-fat dry milk solution included in the preparation of PBS-T. Then, it was incubated overnight at 4° C. with the primary antibody. Thereafter, the cell membrane was exposed to a secondary antibody conjugated to horseradish peroxidase at room temperature (RT) for 2-3 hours, and washed three times with PBS-T. Signals were detected by an enhanced chemiluminescence (ECL) system (Millipore, WBLUR0500) using a LAS 4000 luminescent image analyzer (GE Healthcare, Japan). […]

[5] = tested on: procaspase-9, 3 and 7, PARP-1; experiment: Western blot of caspase proteins and PARP-1 cleavage in SH-SY5Y cells; format: cell-based, human; conditions: rotenone alone; FIGS. 17A-17D, 18A-18D
Procedure: as §1, with “Damaged and depleted suspended cells in the culture and adherent cells isolated by trypsinization were combined and a trypan blue cell counting method was applied.” left out
as §2

[6] = tested on: BAX, Bcl-2 and Mcl-1; experiment: Western blot of apoptosis-related proteins Bax, Bcl-2, Mcl-1 in SH-SY5Y cells; format: cell-based, human; conditions: rotenone alone
Procedure: as §1, §3
Protein (15 μg) was separated on an 8-14% SDS-polyacrylamide gel and transferred to a nitrocellulose membrane (Millipore, Berlington, MA, USA, HATF00010), and the membrane was washed with PBS containing 0.5% (v/v) Tween 20 (PBS-T), followed by blocking with 5% (v/v) non-fat dry milk solution included in the preparation of PBS-T. Then, it was incubated overnight at 4° C. with the primary antibody. […]

C=C(C)[C@H]1Cc2c(ccc3c2O[C@@H]2COc4cc(OC)c(OC)cc4[C@@H]2C3=O)O1 [rotenone]
viability at 48 h, 0.5 μM [1]: 55% | phosphorylated S129 alpha-synuclein/total alpha-synuclein ratio with respect to dimers and monomers [2]: significantly decreased | protein expression of tyrosine hydroxylase [3]: decreased | expression of NF—H, β3-tubulin, NeuN and SYP [4]: reduced | cleaved-PARP/pro-PARP ratio [5]: greatly increased | expression of procaspase-9, 3 and 7 [5]: greatly decreased | Bax/Bcl-2 ratio [6]: greatly increased | Bax expression ([6]; FIGS. 15A-15D, 16A-16D): significantly increased | expression of Bcl-2 and Mcl-1 ([6]; FIGS. 15A-15D, 16A-16D): significantly inhibited
